Source: patent EP1202975B1, “SUBSTITUTED POLYCYCLIC ARYL AND HETEROARYL PYRAZINONES USEFUL FOR SELECTIVE INHIBITION OF THE COAGULATION CASCADE” (Pharmacia Corporation, priority 1999, dated 2000)
Like-named read-outs stand apart in the source and are kept apart here.

How the values were obtained:
TF-VIIa = biological target: T1, TF-VIIa (Homo sapiens, UniProt P08709); experiment: TF-VIIa Assay; format: biochemical
T1 construct: 2nM recombinant human factor VIIa; purchased American Diagnostica, Greenwich CT; host or cells: soluble TF made in house in E. coli

Human factor Xa [1] = biological target: T2, Human factor Xa (Homo sapiens, UniProt P00742); experiment: Xa Assay
Human factor Xa [2] = biological target: T2, Human factor Xa
[3] = cells given as a plain number (IC50); read-out: IC50 or % Inhibition TF-VIIa (30 µM)
[4] = read-out: IC50 or % Inhibition TF-VIIa (30 µM); cells given as a plain number (IC50)
[5] = read-out: IC50 or % Inhibition Factor Xa (30 µM), cells given as a plain number (IC50)
[6] = cells given as a plain number (IC50)

T2 sequence (P00742 235-488 limits assumed): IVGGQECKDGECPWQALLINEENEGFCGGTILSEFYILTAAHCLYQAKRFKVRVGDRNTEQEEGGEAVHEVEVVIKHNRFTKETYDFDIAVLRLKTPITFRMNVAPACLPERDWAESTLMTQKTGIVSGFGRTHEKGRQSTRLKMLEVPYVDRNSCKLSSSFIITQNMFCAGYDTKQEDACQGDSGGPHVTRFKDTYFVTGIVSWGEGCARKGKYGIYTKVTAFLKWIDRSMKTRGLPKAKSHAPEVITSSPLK
T2 sequence (P00742 41-179 limits assumed): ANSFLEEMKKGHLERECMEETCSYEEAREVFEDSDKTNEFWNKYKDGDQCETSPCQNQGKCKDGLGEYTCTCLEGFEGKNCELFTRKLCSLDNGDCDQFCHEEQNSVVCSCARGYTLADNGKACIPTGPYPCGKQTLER
T1 sequence (P08709 213-466 limits assumed): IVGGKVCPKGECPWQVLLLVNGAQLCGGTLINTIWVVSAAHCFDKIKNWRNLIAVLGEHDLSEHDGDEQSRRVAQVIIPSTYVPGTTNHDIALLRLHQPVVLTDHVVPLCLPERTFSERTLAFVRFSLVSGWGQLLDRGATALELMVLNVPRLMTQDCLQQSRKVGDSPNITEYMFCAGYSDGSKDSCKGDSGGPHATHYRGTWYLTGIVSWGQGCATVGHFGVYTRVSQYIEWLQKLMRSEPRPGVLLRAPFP
T1 sequence (P08709 61-212 limits assumed): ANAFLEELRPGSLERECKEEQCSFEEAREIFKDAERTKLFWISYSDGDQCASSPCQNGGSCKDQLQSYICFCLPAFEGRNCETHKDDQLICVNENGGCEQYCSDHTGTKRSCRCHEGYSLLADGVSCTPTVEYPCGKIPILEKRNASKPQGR
T1 sequence (P13726 33-251 partner limits assumed): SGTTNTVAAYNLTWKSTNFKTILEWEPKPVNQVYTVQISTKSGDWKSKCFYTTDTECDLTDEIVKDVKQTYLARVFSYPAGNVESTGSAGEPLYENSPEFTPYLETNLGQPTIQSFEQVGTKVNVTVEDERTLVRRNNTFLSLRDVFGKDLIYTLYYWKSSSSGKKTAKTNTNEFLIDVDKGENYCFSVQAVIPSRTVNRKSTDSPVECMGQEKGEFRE

SMILES	IC50 (TF-VIIa; [4]) [µM]	IC50 (Human factor Xa [1]; [5]) [µM]	further results
N=C(N)c1ccc(CNC(=O)Cn2c(-c3ccccc3)c(Cl)nc(NCCc3ccncc3)c2=O)cc1 [1471-13]			IC50 (TF-VIIa; [3]): 1.47 µM; IC50 or % Inhibition Factor Xa (30 µM) (Human factor Xa [1]; % inhibition at 30 µM): 0%
N=C(N)c1ccc(CNC(=O)Cn2c(-c3cccc(Cl)c3)c(Cl)nc(NCc3ccccc3)c2=O)cc1 [1471-25]			IC50 or % Inhibition Factor Xa (30 µM) (Human factor Xa [1]; % inhibition at 30 µM): 31%
N=C(N)c1ccc(CNC(=O)Cn2c(-c3ccccc3)c(Cl)nc(NCc3ccc(OC(F)(F)F)cc3)c2=O)cc1 [1507-04]	29.5	> 30	
N=C(N)c1ccc(CNC(=O)Cn2c(-c3ccccc3)c(Cl)nc(NCCc3ccc(Br)cc3)c2=O)cc1 [1507-06]	20	> 30	
N=C(N)c1ccc(CNC(=O)Cn2c(-c3ccccc3)c(Cl)nc(NC(Cc3ccccc3)c3ccccc3)c2=O)cc1 (centres unmarked) [1507-07]		> 30	IC50 or % Inhibition TF-VIIa (30 µM) (TF-VIIa): 25%
COc1ccc(CCNc2nc(Cl)c(-c3ccccc3)n(CC(=O)NCc3ccc(C(=N)N)cc3)c2=O)cc1 [1507-11]	3	> 30	
COc1cccc(CCNc2nc(Cl)c(-c3ccccc3)n(CC(=O)NCc3ccc(C(=N)N)cc3)c2=O)c1 [1507-12]	6.7	> 30	
COc1ccc(CNc2nc(Cl)c(-c3ccccc3)n(CC(=O)NCc3ccc(C(=N)N)cc3)c2=O)cc1 [1507-13]	26.7	> 30	
N=C(N)c1ccc(CNC(=O)Cn2c(-c3ccccc3)c(Cl)nc(NCc3ccccc3C(F)(F)F)c2=O)cc1 [1507-15]	12	> 30	
N=C(N)c1ccc(CNC(=O)Cn2c(-c3ccccc3)c(Cl)nc(NCCc3cccs3)c2=O)cc1 [1507-18]		> 30	
N=C(N)c1ccc(CNC(=O)Cn2c(-c3ccccc3)c(Cl)nc(NCc3ccc(Cl)cc3Cl)c2=O)cc1 [1507-22]		> 30	IC50 or % Inhibition TF-VIIa (30 µM) (TF-VIIa): 45%
N=C(N)c1ccc(CNC(=O)Cn2c(-c3ccccc3)c(Cl)nc(NC3CCCC3)c2=O)cc1 [1507-25]	1.6	> 30	
N=C(N)c1ccc(CNC(=O)Cn2c(-c3ccccc3)c(Cl)nc(NCc3ccc(F)cc3F)c2=O)cc1 [1507-26]	20.5	> 30	
N=C(N)c1ccc(CNC(=O)Cn2c(-c3ccccc3)c(Cl)nc(NCc3cccc4ccccc34)c2=O)cc1 [1507-28]		> 30	IC50 or % Inhibition TF-VIIa (30 µM) (TF-VIIa): 38%
N=C(N)c1ccc(CNC(=O)Cn2c(-c3ccccc3)c(Cl)nc(NC3CCCCCC3)c2=O)cc1 [1507-29]			IC50 (TF-VIIa; [3]): 5.8 µM; IC50 or % Inhibition Factor Xa (30 µM) (Human factor Xa [1]; % inhibition at 30 µM): 4%
N=C(N)c1ccc(CNC(=O)Cn2c(-c3ccccc3)c(Cl)nc(NCc3ccc(Br)cc3)c2=O)cc1 [1507-30]	13.4	> 30	
N=C(N)c1ccc(CNC(=O)Cn2c(-c3ccccc3)c(Cl)nc(NC3CC3)c2=O)cc1 [1507-31]	3.7	> 30	
CC(C)CNc1nc(Cl)c(-c2ccccc2)n(CC(=O)NCc2ccc(C(=N)N)cc2)c1=O [1507-32]		> 30	IC50 (TF-VIIa; [3]): 21.3 µM
C[C@H](Nc1nc(Cl)c(-c2ccccc2)n(CC(=O)NCc2ccc(C(=N)N)cc2)c1=O)c1ccccc1 [1507-34]	8.5	> 30	
N=C(N)c1ccc(CNC(=O)Cn2c(-c3ccccc3)c(Cl)nc(NC3CCS(=O)(=O)C3)c2=O)cc1 (centres unmarked) [1507-36]			IC50 (TF-VIIa; [3]): 13.8 µM; IC50 or % Inhibition Factor Xa (30 µM) (Human factor Xa [1]; % inhibition at 30 µM): 0%
N=C(N)c1ccc(CNC(=O)Cn2c(-c3ccccc3)c(Cl)nc(NCc3cccc(Cl)c3)c2=O)cc1 [1507-38]	16	> 30	
N=C(N)c1ccc(CNC(=O)Cn2c(-c3ccccc3)c(Cl)nc(NCc3cccc(F)c3)c2=O)cc1 [1507-42]	11.6	> 30	
Cc1ccc(CCNc2nc(Cl)c(-c3ccccc3)n(CC(=O)NCc3ccc(C(=N)N)cc3)c2=O)cc1 [1507-45]	7.3	> 30	
CCCCNc1nc(Cl)c(-c2ccccc2)n(CC(=O)NCc2ccc(C(=N)N)cc2)c1=O [1512-14]			IC50 (TF-VIIa; [3]): 3.2 µM; IC50 or % Inhibition Factor Xa (30 µM) (Human factor Xa [1]; % inhibition at 30 µM): 7%
N=C(N)c1ccc(CNC(=O)Cn2c(-c3ccccc3)c(Cl)nc(NC3CCCCCC3)c2=O)cc1 [1512-16]			IC50 (TF-VIIa; [3]): 6.5 µM; IC50 or % Inhibition Factor Xa (30 µM) (Human factor Xa [1]; % inhibition at 30 µM): 10%
N=C(N)c1ccc(CNC(=O)Cn2c(-c3ccccc3)c(Cl)nc(NC3CCS(=O)(=O)C3)c2=O)cc1 (centres unmarked) [1512-19]			IC50 (TF-VIIa; [3]): 14.3 µM; IC50 or % Inhibition Factor Xa (30 µM) (Human factor Xa [1]; % inhibition at 30 µM): 3%

SMILES	IC50 (TF-VIIa; [4]) [µM]	IC50 (Human factor Xa [1]; [5]) [µM]	further results
N=C(N)c1ccc(CNC(=O)Cn2c(-c3cccc(C(F)(F)F)c3)c(Cl)nc(NCc3ccccc3)c2=O)cc1 [1515-01]	7	> 30	
COc1ccccc1-c1c(Cl)nc(NCc2ccccc2)c(=O)n1CC(=O)NCc1ccc(C(=N)N)cc1 [1515-02]	3.8	> 30	
N=C(N)c1ccc(CNC(=O)Cn2c(-c3ccccc3Cl)c(Cl)nc(NCc3ccccc3)c2=O)cc1 [1515-04]	5.2	> 30	
COc1cccc(-c2c(Cl)nc(NCc3ccccc3)c(=O)n2CC(=O)NCc2ccc(C(=N)N)cc2)c1 [1515-05]	4	> 30	
N=C(N)c1ccc(CNC(=O)Cn2c(-c3cccs3)c(Cl)nc(NCc3ccccc3)c2=O)cc1 [1515-06]	1.7	> 30	
N=C(N)c1ccc(CNC(=O)Cn2c(-c3ccc(F)cc3)c(Cl)nc(NCc3ccccc3)c2=O)cc1 [1515-07]	14.2	> 30	
N=C(N)c1ccc(CNC(=O)Cn2c(-c3ccccc3)c(Cl)nc(N3CCC3)c2=O)cc1 [1522-28]		> 30	
Nc1ccc(CNC(=O)Cn2c(Cc3ccccc3)c(Cl)nc(NCCc3ccccc3)c2=O)cn1 [Example 9]			IC50 or % Inhibition Factor Xa (30 µM) (Human factor Xa [1]; [6]): >0 µM
Nc1ccc(CNC(=O)Cn2c(CCc3ccccc3)c(Cl)nc(NCCc3ccccc3)c2=O)cn1 [Example 10, 3-(2-Phenylethylamino)-5-chloro-6-phenethyl-1-(2-amino-5-methylcarboxamidomethylpyridinyl)pyrazinone]			IC50 or % Inhibition Factor Xa (30 µM) (Human factor Xa [1]; [6]): >0 µM
N=C(N)c1ccc(CNC(=O)Cn2c(-c3ccccc3)c(Cl)nc(CN)c2=O)cc1 [Example 18]			IC50 or % Inhibition Factor Xa (30 µM) (Human factor Xa [1]; % inhibition at 30 µM): 0%
Nc1cccc(-c2c(Cl)nc(NC3CCC3)c(=O)n2CC(=O)NCCCc2ccnc(N)n2)c1 [Example 26]			IC50 or % Inhibition Factor Xa (30 µM) (Human factor Xa [1]; % inhibition at 30 µM): 5%
N=C(N)c1ccc(CNC(=O)Cn2c(-c3ccccc3)c(Cl)nc(NCCN)c2=O)cc1 [Example 44]			IC50 or % Inhibition Factor Xa (30 µM) (Human factor Xa [1]; % inhibition at 30 µM): 4%
N=C(N)c1ccc(CNC(=O)Cn2c(-c3ccccc3)c(Cl)nc(NCCCN)c2=O)cc1 [Example 45]			IC50 or % Inhibition Factor Xa (30 µM) (Human factor Xa [1]; % inhibition at 30 µM): 9%
N=C(N)c1ccc(CNC(=O)Cn2c(-c3ccccc3)c(Cl)nc(NCCCCN)c2=O)cc1 [Example 46]			IC50 or % Inhibition Factor Xa (30 µM) (Human factor Xa [1]; % inhibition at 30 µM): 10%
CC(C)Nc1nc(Cl)c(-c2cccc([N+](=O)[O-])c2)n(CC(=O)NCc2ccc(C#N)cc2)c1=O [Example 59]			IC50 or % Inhibition Factor Xa (30 µM) (Human factor Xa [1]; % inhibition at 30 µM): 2%
CC(=O)Nc1cccc(-c2c(Cl)nc(NCCc3ccccc3)c(=O)n2CC(=O)NCc2ccc(C(=N)N)cc2)c1 [Example 100]			IC50 (Human factor Xa [1]): > 30 µM
CS(=O)(=O)Nc1cccc(-c2c(Cl)nc(NCCc3ccccc3)c(=O)n2CC(=O)NCc2ccc(C(=N)N)cc2)c1 [Example 101]			IC50 (Human factor Xa [1]): > 30 µM
N=C(N)c1ccc(CNC(=O)Cn2c(-c3ccccc3)cnc(NS(=O)(=O)c3ccccc3)c2=O)cc1 [Example 105]			IC50 or % Inhibition Factor Xa (30 µM) (Human factor Xa [1]; % inhibition at 30 µM): 5%
COc1ccc(-c2c(Cl)nc(NCc3ccccc3)c(=O)n2CC(=O)NCCc2ccncc2)cc1 [Example E-0097]			% Inhibition TF-VIIa (100 µM) (TF-VIIa): 0%; % Inhibition Factor Xa (100 µM) (Human factor Xa [2]): 3%
COc1ccc(-c2c(Cl)nc(NCc3ccccc3)c(=O)n2CC(=O)NCCc2cccnc2)cc1 [Example E-0098]			% Inhibition TF-VIIa (100 µM) (TF-VIIa): 0%; % Inhibition Factor Xa (100 µM) (Human factor Xa [2]): 2%
COc1ccc(-c2c(Cl)nc(NCCc3cccc(Cl)c3)c(=O)n2CC(=O)NCCc2cccnc2)cc1 [Example E-0104]			% Inhibition TF-VIIa (100 µM) (TF-VIIa): 3%; % Inhibition Factor Xa (100 µM) (Human factor Xa [2]): 5%
COc1ccc(-c2c(Cl)nc(NCCc3ccc(Cl)cc3)c(=O)n2CC(=O)NCCc2cccnc2)cc1 [Example E-0107]			% Inhibition TF-VIIa (100 µM) (TF-VIIa): 4%; % Inhibition Factor Xa (100 µM) (Human factor Xa [2]): 6%
O=C(Cn1c(-c2ccc(-c3ccccc3)cc2)c(Cl)nc(NCc2ccccc2)c1=O)NCCc1cccnc1 [Example E-0110]			% Inhibition TF-VIIa (100 µM) (TF-VIIa): 0%; % Inhibition Factor Xa (100 µM) (Human factor Xa [2]): 3%
CSc1ccc(N)cc1-c1c(Cl)nc(NC(C)C)c(=O)n1CC(=O)NCc1ccc(C(=N)N)cc1 [compound 76]			IC50 or % Inhibition Factor Xa (30 µM) (Human factor Xa [1]; % inhibition at 30 µM): 0%
CNc1cccc(-c2c(Cl)nc(NCCc3ccccc3)c(=O)n2CC(=O)NCc2ccc(C(=N)N)cc2)c1 [compound 95]		> 30	
